Measurements: article PMC12040169 (PLOS Biology, 2025)

test: in vitro; settings: human, hela cells, % viability

| Compound | viability at 28.5 h, 10 µM [%] |
| --- | --- |
| CC(C)CN1C(=O)c2ccc(C(=O)NCc3ccc(C(=O)O)cc3)cc2C1=O [CBK286898] | 116 |
| CC1CN(CCC(=O)O)Cc2cc(Cl)ccc2O1 (centres unmarked) [CBK286899] | 103 |
| O=C(O)/C=C/c1ccccc1OCC(=O)NC1CCCCC1 [CBK286900] | 99.8 |
| O=C(O)C1CC(=O)N(c2cccc3ccccc23)C1 (centres unmarked) [CBK286902] | 88.8 |
| O=C(O)C1CCCCC1C(=O)NCCCN1CCOCC1 (centres unmarked) [CBK286903] | 83.4 |
| O=C(O)C1=CC(c2c[nH]nc2-c2ccc(F)cc2)n2ncnc2N1 (centres unmarked) [CBK286906] | 86.2 |
| COc1ccc(Cl)cc1/C=C/C(=O)NCc1ccc(C(=O)O)cc1 [CBK286908] | 89.3 |
| O=C(O)CC(NCc1ccco1)C(=O)Nc1cccc(F)c1 (centres unmarked) [CBK286910] | 97 |
| O=C(O)COc1cccc(NS(=O)(=O)c2ccc(Br)cc2)c1 [CBK286911] | 111 |
| NC(CC(=O)O)c1ccc(F)c(Oc2ccccc2)c1 (centres unmarked) [CBK286912] | 101 |
| O=C(O)C1CCCCC1C(=O)NCCCN1CCCC1=O (centres unmarked) [CBK286914] | 83.1 |
| CN1CCN(NC(=O)C2C3C=CC(C3)C2C(=O)O)CC1 (centres unmarked) [CBK286915] | 90.1 |
| O=C(O)CCNS(=O)(=O)c1ccc2ccccc2c1 [CBK286920] | 98.6 |
| O=C(O)[C@@H]1CSC(c2ccc(C(F)(F)F)cc2)N1 (some centres unmarked) [CBK286921] | 87.7 |
| O=C(O)CCc1nnc(S)n1Cc1ccccc1 [CBK286926] | 93.8 |
| Cc1ccc(C2SCC(C(=O)O)N2C(=O)c2cccc(Cl)c2)cc1 (centres unmarked) [CBK286931] | 93.3 |
| O=C(O)c1cccn1-c1cc(Cl)cc(Cl)c1 [CBK286932] | 98.8 |
| O=C1CC(/C=C/c2ccccc2)Cc2[nH]c(=O)c(C(=O)O)cc21 (centres unmarked) [CBK286933] | 92.9 |
| CSc1ccc([C@H]2[C@H](C(=O)O)CC(=O)N2Cc2ccccc2)cc1 [CBK286934] | 91.7 |
| Cc1ccc(S(=O)(=O)N2CCN(C(=O)C3CCCCC3C(=O)O)CC2)cc1C (centres unmarked) [CBK286936] | 97 |
| O=C(O)C1C2C=CC3(CN(C/C=C/c4ccccc4)C(=O)C13)O2 (centres unmarked) [CBK286946] | 119 |

| Compound | viability at 28.5 h, 10 µM [%] |
| --- | --- |
| O=C(O)CCC(=O)Nc1nc(-c2ccccc2)cs1 [CBK286947] | 109 |
| Cc1nn(Cc2cccc(C(=O)O)c2)c(C)c1Br [CBK286950] | 100 |
| CCS(=O)(=O)c1ccc2cc(C(=O)O)[nH]c2c1 [CBK286951] | 101 |
| O=C(O)CN1C(=O)C2CCC(c3ccccc3)CC2C1=O (centres unmarked) [CBK286952] | 95.7 |
| CC1(C(=O)O)CCC(C(=O)Nc2ccc(F)cc2)C1(C)C (centres unmarked) [CBK286953] | 98.8 |
| COc1ccc2nc(C)c(CCC(=O)O)c(O)c2c1 [CBK286955] | 98.8 |
| O=C(O)CCC(=O)Nc1ccc(Oc2ccccc2)cc1 [CBK286957] | 88.9 |
| Cc1c(C(=O)O)c(-c2ccc(Cl)cc2)cn1CCO [CBK286959] | 87 |
| CC1CC(Nc2ccccc2)c2ccccc2N1C(=O)CCCC(=O)O (centres unmarked) [CBK286960] | 89.3 |
| O=C(O)CCc1nc2ccccc2n1C1CCCCC1 [CBK286961] | 87.5 |
| Cc1ccc(S(=O)(=O)N2CCSC2C(=O)O)cc1 (centres unmarked) [CBK286964] | 86.8 |
| Cc1nc(=O)c(-c2ccccc2)c(C)n1-c1cccc(C(=O)O)c1 [CBK286965] | 94.3 |
| O=C(O)c1cccc(N2N=C(c3ccccc3)CC2=O)c1 [CBK286966] | 96.5 |
| O=C(O)C1C2CCC(C2)C1C(=O)NCCCCc1ccccc1 (centres unmarked) [CBK286967] | 91.1 |
| Cc1cc(C)nc(NC2=NC(=O)CC(C(=O)O)N2c2ccc(Cl)cc2Cl)n1 (centres unmarked) [CBK286968] | 94.5 |
| COc1ccccc1C(CC(=O)O)c1ccc2c(c1)OCO2 (centres unmarked) [CBK286971] | 91.2 |
| O=C(O)c1cc(NC(=O)C2CCCCC2)cc(C(=O)O)c1 [CBK286972] | 103 |
| COc1ccc(CC(CC(=O)O)C(=O)Nc2ccc(OC)cc2)cc1 (centres unmarked) [CBK286975] | 87.9 |
| Cn1c(CNc2ccccc2C(=O)O)c(C#N)c2ccccc21 [CBK286977] | 88.7 |
| CCn1cc(C(=O)O)c(=O)c2cc(F)c(N3CCN(C(=O)c4ccc(C)cc4)CC3)cc21 [CBK286986] | 99.6 |
| O=C(O)C1C2C=CC3(CN(c4ccccc4)C(=O)C13)O2 (centres unmarked) [CBK286992] | 87.4 |

| Compound | viability at 28.5 h, 10 µM [%] |
| --- | --- |
| Cc1ccc(C(=O)c2cccc(N3C(=O)c4ccc(C(=O)O)cc4C3=O)c2)cc1C [CBK286994] | 110 |
| CC(NC(=O)/C=C\C(=O)O)c1ccc2c(c1)OCO2 (centres unmarked) [CBK286996] | 93.3 |
| O=C(O)C1CC(=O)N(c2ccc(Br)cc2)C1 (centres unmarked) [CBK286998] | 87.7 |
| NC(CC(=O)O)c1ccc(OCc2ccccc2)cc1 (centres unmarked) [CBK286999] | 80.9 |
| O=C(O)CNC1=NC2(CCCCC2)Cc2ccccc21 [CBK287001] | 78.2 |
| Cc1ccc2nc(NCC(=O)O)nc(-c3ccccc3)c2c1 [CBK287002] | 84.4 |
| Cc1cccc(-n2nnnc2SC(C)C(=O)O)c1 (centres unmarked) [CBK287003] | 90.1 |
| CC1=CC(C)C(CN2CC34C=CC(O3)C(C(=O)O)C4C2=O)C(C)C1 (centres unmarked) [CBK287005] | 96.1 |
| O=C(O)c1cc(NCc2cccc(F)c2F)n[nH]1 [CBK287006] | 93.4 |
| CCCNC(=O)Nc1ccc(Cl)c(C(=O)O)c1 [CBK287009] | 85.6 |
| O=C(O)COc1ccc(N2C(=O)C(O)=C(C(=O)c3ccccc3)C2c2cccc(F)c2)cc1 (centres unmarked) [CBK287010] | 96.8 |
| Cc1nn2c(=O)c(CCC(=O)O)c(C)[nH]c2c1-c1ccccc1 [CBK287011] | 92.4 |
| CN1C(C(=O)O)=CC(c2ccc(F)cc2)=NS1(=O)=O [CBK287016] | 97.7 |
| O=C(O)COc1ccccc1/C=C/c1cc(C(F)(F)F)[nH]c(=O)n1 [CBK287017] | 103 |
| COc1cc(C(=O)O)cc2c1NC(c1ccc(C(=O)O)cc1)C1CC=CC21 (centres unmarked) [CBK287018] | 90.3 |
| CC(=O)N1CCN(C(=O)C2C(C(=O)O)C2(C)C)CC1 (centres unmarked) [CBK287021] | 102 |
| O=C(O)C1CCCN1C(=O)c1ccc(C#CC2(O)CCCCC2)cc1 (centres unmarked) [CBK287022] | 105 |
| Cc1ccc(OCC(=O)Nc2cccc(C(=O)O)c2)cc1 [CBK287023] | 110 |
| Cc1ccc(Cl)cc1N1CCN(C(=O)C2C3C=CC(C3)C2C(=O)O)CC1 (centres unmarked) [CBK287025] | 117 |
| CC(C)(C)OC(=O)NCCCn1cc(C(=O)O)nn1 [CBK287028] | 90.4 |
| CC(C)(C)OC(=O)NCC1(CC(=O)O)CCCCC1 [CBK287030] | 93 |

| Compound | viability at 28.5 h, 10 µM [%] |
| --- | --- |
| O=C(O)C1CCCCC1C(=O)NCCN1CCCCC1 (centres unmarked) [CBK287031] | 91.4 |
| CCOCCN1C[C@@H](C(F)(F)F)[C@H](C(=O)O)C1 [CBK287033] | 91.9 |
| COc1ccccc1C(=O)Nc1ccc(Cl)c(C(=O)O)c1 [CBK287034] | 82.1 |
| O=C(O)C(=O)c1cn(Cc2ccccc2Cl)c2ccccc12 [CBK287035] | 88.8 |
| CC1=CC(c2ccccc2)N2N=C(NC(=O)CCCC(=O)O)NC2=N1 (centres unmarked) [CBK287037] | 81.1 |
| O=C(O)c1ccccc1C(=O)Nc1c(-c2ccccc2)nc2ccccn12 [CBK287041] | 96.2 |
| CC(CC(=O)O)CC(=O)NC1CCN(Cc2ccccc2)CC1 (centres unmarked) [CBK287042] | 91.4 |
| Cc1cccc(N2CCN(C(=O)C3C4CCC(O4)C3C(=O)O)CC2)c1C (centres unmarked) [CBK287044] | 90 |
| O=C(O)CCC1NC(=O)N(C2CCCCC2)C1=O (centres unmarked) [CBK287046] | 77.3 |
| Cc1ccc(-n2nnnc2SCC(=O)O)cc1 [CBK287048] | 94.1 |
| COc1ccc(-c2nc3ccccn3c2CN2CCC(C(=O)O)CC2)cc1 [CBK287052] | 88.4 |
| CC(C)C1(C)N=C(c2nc3ccccc3cc2C(=O)O)NC1=O (centres unmarked) [CBK287057] | 86.1 |
| Cc1cc(=O)oc2cc(OCC(=O)Nc3cccc(C(=O)O)c3)ccc12 [CBK287058] | 85 |
| O=C(O)CCC(=O)N(Cc1ccco1)C1CC(=O)N(c2ccc(F)cc2)C1=O (centres unmarked) [CBK287059] | 92.1 |
| Cc1nc(=O)c(-c2ccccc2)c(C)n1CCCCCC(=O)O [CBK287060] | 113 |
| CC(NC(=O)C1C2CCC(CC2)C1C(=O)O)c1ccncc1 (centres unmarked) [CBK287061] | 102 |
| CCCNC(C)C(=O)Nc1c(C)csc1C(=O)O (centres unmarked) [CBK287064] | 113 |
| O=C(O)c1cccc(N2C(=O)C3C4C=CC(CO)(O4)C3C2=O)c1 (centres unmarked) [CBK287066] | 103 |
| O=C(O)/C=C\C(=O)Nc1ccccc1C(=O)N1CCOCC1 [CBK287067] | 100 |

same assay, conditions: human, hela cells, % viability, bulk resorufin, single well

| Compound | viability at 28.5 h, 10 µM [%] |
| --- | --- |
| CC(C)=C1C2CCC1C(C(=O)N1CCC3(CC1)OCCO3)C2C(=O)O (centres unmarked) [CBK286937] | 92.7 |
